According to patent publication US6521641B1, “Male anti-fertility agents” (Allergan, Inc., priority 1998, dated 2003):

System: Sprague-Dawley rats
Test: Topical administration of AGN 193109 to rats with Recovery group (Example 4)
Type: in vivo, rat
Procedure: This experiment is conducted as indicated in Example 2, except that the drug is 193109 rather than AGN 194310, and a Recovery group is monitored for a period of time post-treatment as in Example 3. Dosages of the '109 drug is the same as for the topical treatment with the '310 drug.

[1] = rats, topical, at the effective dose

Cc1ccc(C2=CCC(C)(C)c3ccc(C#Cc4ccc(C(=O)O)cc4)cc32)cc1 [AGN 193109]
reversibility (testes histology) (male rats 12 weeks after administration): repopulation of the tubules with males gametes in various stages of development | histological analysis of the testes [1]: absence of primary spermatocytes, spermatids and spermatozoa in the majority of animals' seminiferous tubules | spermatogenic arrest (examination of the testes) [1]: spermatogenic arrest can be seen within thirty days after initiation of treatment
